According to patent publication US12220417B2, “Pharmaceutical compositions comprising (S)-2-(2,6-dioxopiperidin-3-yl)-4-((2-fluoro-4-((3-morpholinoazetidin-1-yl)methyl)benzyl)amino)isoindoline-1,3-dione and methods of using the same” (Celgene Corporation, priority 2019, dated 2025):

What was measured:
Solubility of Compound 1 = assay type: physicochemical; conditions: compared to the low dose / proposed dose levels
Mec1 = assay: Flow cytometry viability/apoptosis assay, Mec1; assay type: cell-based; conditions: Homo sapiens; Mec1, CLL; 120 hours; read-out: % Viable Cells IC50
Procedure: (§1) Cell Proliferation and Viability Assay Using Hematological Cell Lines: The following exemplary anti-proliferative assay uses exemplary hematological cell lines in the following. The in vitro growth inhibitory activity of Compound 1 described herein was evaluated using a 384-well flow cytometry assay.
(§2) The cell lines were plated in 384-well flat bottom plates and assessed with increasing concentrations of compound ranging from 0.00015 to 10 μM or dimethyl sulfoxide (DMSO) control. The final concentration of DMSO was 0.1% (v/v). Following the addition of Compound 1 or DMSO and incubation for 120 hours, cell number and cell death were analyzed by flow cytometry (Attune®, Thermo Fisher) using Annexin V and the live-cell impermeant DNA dye, DRAQ7. […]
(§3) Flow cytometry data analysis was then performed using the Flow Jo_v10 software to determine the number of viable cells (Annexin V and DRAQ7 double negative staining cells) and percentage of apoptotic cells (Annexin V positive cells) for each condition. […] The IC50 (50% inhibitory concentration) and Emax (maximum efficacy achieved) values were then calculated by performing nonlinear regression curve fitting using log(inhibitor) vs. normalized response—variable slope analysis on GraphPad Prism 7.03. Area under the curve (AUC) was calculated by performing area under curve analysis on GraphPad Prism 7.03. […]

DB = assay: Flow cytometry viability/apoptosis assay, DB; assay type: cell-based; conditions: Homo sapiens, DLBCL GCB, 120 hours, read-out: % Viable Cells IC50
Procedure: as §1, §2, §3

OCI-LY3 = assay: Flow cytometry viability/apoptosis assay, OCI-LY3; assay type: cell-based; conditions: Homo sapiens; OCI-LY3, DLBCL ABC; 120 hours; read-out: % Viable Cells IC50
Procedure: as §1, §2, §3

HG3 = assay: Flow cytometry viability/apoptosis assay, HG3; assay type: cell-based; conditions: HG-3; HG3, CLL; 120 hours; read-out: % Viable Cells IC50
Procedure: as §1, §2, §3

hematological cell lines = assay: Cell Proliferation and Viability Assay Using Hematological Cell Lines (whole panel); assay type: cell-based; conditions: panel of hematological cell lines, 0.00015 to 10 μM, 5 days
Procedure: as §1, §2, §3

ROS-50 = assay: Flow cytometry viability/apoptosis assay, ROS-50; assay type: cell-based; conditions: ROS-50, DLBCL; 120 hours; read-out: % Viable Cells IC50
Procedure: as §1, §2, §3

CII = assay: Flow cytometry viability/apoptosis assay, CII; assay type: cell-based; conditions: CLL, 120 hours, read-out: % Viable Cells IC50
Procedure: as §1, §2, §3

WA-OSEL = assay: Flow cytometry viability/apoptosis assay, WA-OSEL; assay type: cell-based; conditions: CLL, 120 hours, read-out: % Viable Cells IC50
Procedure: as §1, §2, §3

PGA1 = assay: Flow cytometry viability/apoptosis assay, PGA1; assay type: cell-based; conditions: PGA1, CLL; 120 hours; read-out: % Viable Cells IC50
Procedure: as §1, §2, §3

| SMILES | solubility (Solubility of Compound 1) | IC50 (Mec1) [µM] | IC50 (DB) [µM] | IC50 (OCI-LY3) [µM] | IC50 (HG3) [µM] | antiproliferative activity and/or apoptotic effects (hematological cell lines) | IC50 (ROS-50) [µM] | IC50 (CII) [µM] | IC50 (WA-OSEL) [µM] | IC50 (PGA1) [µM] |
| --- | --- | --- | --- | --- | --- | --- | --- | --- | --- | --- |
| Cl.O=C1CC[C@H](N2C(=O)c3cccc(NCc4ccc(CN5CC(N6CCOCC6)C5)cc4F)c3C2=O)C(=O)N1 [Compound 1 HC, salt] | relatively high |  |  |  |  |  |  |  |  |  |
| O=C1CC[C@H](N2C(=O)c3cccc(NCc4ccc(CN5CC(N6CCOCC6)C5)cc4F)c3C2=O)C(=O)N1 [Compound 1, (S)-2-(2,6-dioxopiperidin-3-yl)-4-((2-fluoro-4-((3-morpholinoazetidin-1-yl)methyl)benzyl)amino)isoindoline-1,3-dione] | relatively high | ≥ 10 | ≥ 10 | ≥ 10 | ≥ 10 | antiproliferative activity and/or apoptotic effects in almost all hematological cell lines tested | ≥ 10 | ≥ 10 | ≥ 10 | ≥ 10 |
